In US20250346606A1, “CAMPTOTHECIN COMPOUND, PREPARATION METHOD THEREFOR, AND APPLICATION THEREOF” (SICHUAN KELUN-BIOTECH BIOPHARMACEUTICAL CO., LTD., priority 2021, published 2025):
Like-named read-outs stand apart in the source and are kept apart here.

Tests used:
Type in all cases: cell-based, Human
A549 cells = assay: Inhibitory effect of compounds on A549 cell proliferation; conditions: read-out: IC50, inhibitory activity on A549 cell proliferation
Protocol: (1) Cell plating: First, tumor cells A549 were cultured in the corresponding medium, then digested with trypsin, centrifuged and resuspended, and counted, and the cells were adjusted to an appropriate concentration for plating.
(§1) Co-incubation of the compound of the present disclosure and tumor cells: after the cells adhered to the wall, the medium was removed, and the diluted bioactive molecule (the compound of the present disclosure) was added to the wells of the above plate, and incubated for 72 h.
(§2) In vitro cell activity detection: After the incubation, 50 μL of Cell Counting-Lite™ 2.0 reagent (Vazyme/Novazyme) was added to each well, shaken and mixed well in the dark, reacted for 10 minutes, and then the detection was carried out with a microplate reader (manufacturer: BMG, Model: PHERAStar-FS) for reading. The background RLU was obtained by using cell-free medium (with Cell Counting-Lite™), and the vehicle RLU was obtained by using cell-containing medium (with Cell Counting-Lite™). Cell inhibition rate=1−(sample RLU−background RLU)/(solvent RLU−background RLU)×100%. According to the four-parameter model fitting curve, the half maximal inhibitory concentration (IC50) of the compound was calculated, and the detection results were shown in Table 4.

NCI-H358 cells = assay: Inhibitory effect of compounds on NCI-H358 cell proliferation
In short: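 Adherent NCI-H358 cells were exposed to compound for 72 h, then viability was read by luminescence (Cell Counting-Lite 2.0). Inhibition calculated from RLU relative to cell-free background and vehicle wells; IC50 from a four-parameter fit.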

SKOV-3 cells = assay: Inhibitory effect of compounds on SKOV-3 cell proliferation; conditions: read-out: IC50, inhibitory activity on SKOV-3 cell proliferation
Protocol: (1) Cell plating: First, tumor cells SKOV-3 were cultured in corresponding medium, then digested with trypsin, centrifuged, resuspended, and counted, and the cells were adjusted to an appropriate concentration for plating.
as §1
as §2, with “viability” for “activity”, “8.” for “4.”

HCC70 cells = assay: Inhibitory effect of compounds on HCC70 cell proliferation; conditions: read-out: IC50, inhibitory activity on HCC70 cell proliferation
Protocol: (1) Cell plating: First, tumor cells HCC70 were cultured in corresponding medium, then digested with trypsin, centrifuged, resuspended, and counted, and the cells were adjusted to an appropriate concentration for plating.
as §1
as §2, with “viability” for “activity”, “16.” for “4.”

NCI-N87 cells = assay: Inhibitory effect of compounds on NCI-N87 cell proliferation
In short: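 Adherent NCI-N87 cells were exposed to compound dilutions for 72 h. Viability measured by Cell Counting-Lite 2.0 luminescence, with inhibition calculated against vehicle and cell-free background RLU. IC50 from four-parameter fit.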

HCC1806 cells = assay: Inhibitory effect of compounds on HCC1806 cell proliferation
Protocol: (1) Cell plating: First, tumor cells HCC1806 were cultured in corresponding medium, then digested with trypsin, centrifuged, resuspended, and counted, and the cells were adjusted to an appropriate concentration for plating.
as §1
as §2, with “viability” for “activity”, “6.” for “4.”

HT29 cells = assay: Inhibitory effect of compounds on HT29 cell proliferation; conditions: read-out: IC50, inhibitory activity on HT29 cell proliferation
In short: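 Adherent HT29 cells incubated with diluted compounds for 72 h; viability read by luminescence (Cell Counting-Lite 2.0, 10 min). Inhibition calculated against cell-free background and vehicle-treated cells; IC50 from four-parameter curve fit.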

MDA-MB-231 cells = assay: Inhibitory effect of compounds on MDA-MB-231 cell proliferation; conditions: read-out: IC50, inhibitory activity on MDA-MB-231 cell proliferation
Protocol: (1) Cell plating: First, tumor cells MDA-MB-231 were cultured in corresponding medium, then digested with trypsin, centrifuged, resuspended, and counted, and the cells were adjusted to an appropriate concentration for plating.
as §1
as §2, with “viability” for “activity”, “18.” for “4.”

Jeko-1 cells = assay: Inhibitory effect of compounds on Jeko-1 cell proliferation; conditions: Jeko-1 human mantle cell lymphoma cells, 72 h incubation, Cell Counting-Lite 2.0; read-out: IC50, inhibitory activity on Jeko-1 cell proliferation
Protocol: (1) Cell plating: First, tumor cells Jeko-1 were cultured in corresponding medium, then digested with trypsin, centrifuged, resuspended, and counted, and the cells were adjusted to an appropriate concentration for plating.
as §1
as §2, with “viability” for “activity”, “20.” for “4.”

Hela cells = assay: Inhibitory effect of compounds on Hela cell proliferation; conditions: read-out: IC50, inhibitory activity on Hela cell proliferation
Protocol: (1) Cell plating: First, tumor cells Hela were cultured in corresponding medium, then digested with trypsin, centrifuged, resuspended, and counted, and the cells were adjusted to an appropriate concentration for plating.
as §1
as §2, with “viability” for “activity”, “14.” for “4.”

[1] = Homo sapiens, NCI-H358, 72 h, read-out: IC50, inhibitory activity on NCI-H358 cell proliferation, NCI-H358 human non-small cell lung cancer cells, 72 h incubation, Cell Counting-Lite 2.0
[2] = Homo sapiens, HCC1806, 72 h, read-out: IC50, inhibitory activity on HCC1806 cell proliferation, HCC1806 human breast squamous carcinoma cells, 72 h incubation, Cell Counting-Lite 2.0
[3] = NCI-N87 human gastric cancer cells, 72 h incubation, Cell Counting-Lite 2.0, read-out: IC50, inhibitory activity on NCI-N87 cell proliferation
[4] = HT-29, HT29 human colon cancer cells, 72 h incubation, Cell Counting-Lite 2.0

| SMILES | IC50 (A549 cells; Homo sapiens, A549, 72 h) | IC50 (NCI-H358 cells; [1]) | IC50 (SKOV-3 cells; Homo sapiens, SK-OV-3, 72 h) | IC50 (HCC70 cells; Homo sapiens, HCC70, 72 h) | IC50 (HCC1806 cells; [2]) | IC50 (HT29 cells; Homo sapiens, HT-29, 72 h) | IC50 (NCI-N87 cells; [3]) | IC50 (HT29 cells; [4]) | further results |
| --- | --- | --- | --- | --- | --- | --- | --- | --- | --- |
| CC[C@@]1(O)C(=O)OCc2c1cc1n(c2=O)Cc2c-1nc1cc(Cl)c(C)c3c1c2[C@@H](NC(=O)[C@H](O)C1CC1)CC3 [Example 5 (2-12-C), (2R)—N-((1S,9S)-5-chloro-9-ethyl-9-hydroxy-4-methyl-10,13-dioxo-2,3,9,10,13,15-hexahydro-1H,12H-benzo[de]pyrano[3′,4′:6,7]indolizino[1,2-b]quinolin-1-yl)-2-cyclopropyl-2-hydroxyacetamide] | 6.64 nM | 23.1 nM | 6.52 nM | 211 nM | 2.08 nM | 1.49 nM | – | – | IC50 (NCI-N87 cells; Homo sapiens, NCI-N87, 72 h, read-out: IC50, inhibitory activity on NCI-N87 cell proliferation, NCI-N87 human gastric cancer cells, 72 h incubation, Cell Counting-Lite 2.0): 4.51 nM |
| CC[C@@]1(O)C(=O)OCc2c1cc1n(c2=O)Cc2c-1nc1cc(F)c(C)c3c1c2[C@@](C)(N)CC3 (single isomer, unassigned) [Example 12 (5-13-A)] | – | – | – | – | – | – | 2.33 nM | 0.88 nM | IC50 (MDA-MB-231 cells; MDA-MB-231 human breast cancer cells, 72 h incubation, Cell Counting-Lite 2.0): 333 nM; IC50 (NCI-H358 cells; NCI-H358 human non-small cell lung cancer cells, 72 h incubation, Cell Counting-Lite 2.0, read-out: IC50, inhibitory activity on NCI-H358 cell proliferation): 7.01 nM; IC50 (SKOV-3 cells; SK-OV-3, SKOV-3 human ovarian cancer cells, 72 h incubation, Cell Counting-Lite 2.0): 2.09 nM; IC50 (HCC70 cells; HCC70 human breast cancer cells, 72 h incubation, Cell Counting-Lite 2.0): 36.6 nM; IC50 (HCC1806 cells; HCC1806 human breast squamous carcinoma cells, 72 h incubation, Cell Counting-Lite 2.0, read-out: IC50, inhibitory activity on HCC1806 cell proliferation): 0.96 nM |
| CC[C@@]1(O)C(=O)OCc2c1cc1n(c2=O)Cc2c-1nc1cc(F)c(C)cc1c2CNC(=O)C1(O)CC1 [Example 11 (4-10), (S)—N-((4-ethyl-8-fluoro-4-hydroxy-9-methyl-3,14-dioxo-3,4,12,14-tetrahydro-1H-pyrano[3′,4′:6,7]indolizino[1,2-b]quinolin-11-yl)methyl)-1-hydroxycyclopropane-carboxamide] | – | – | – | – | – | – | 2.29 nM | 0.52 nM | IC50 (A549 cells; A549 human lung cancer cells, 72 h incubation, Cell Counting-Lite 2.0): 68.5 nM; IC50 (Jeko-1 cells): 0.45 nM; IC50 (Hela cells; Hela human cervical cancer cells, 72 h incubation, Cell Counting-Lite 2.0): 3.04 nM |
| CC[C@@]1(O)C(=O)OCc2c1cc1n(c2=O)Cc2c-1nc1cc(Cl)c(C)c3c1c2[C@@H](NC(=O)CO)CC3 [Example 3 (2-1-A), N-((1S,9S)-5-chloro-9-ethyl-9-hydroxy-4-methyl-10,13-dioxo-2,3,9,10,13,15-hexahydro-1H,12H-benzo[de]pyrano[3′,4′:6,7]indolizino[1,2-b]quinolin-1-yl)-2-hydroxyacetamide] | – | 68.6 nM | 7.12 nM | – | 1.43 nM | 5.03 nM | – | – | IC50 (MDA-MB-231 cells; Homo sapiens, MDA-MB-231, 72 h): 300 nM; IC50 (Hela cells; Homo sapiens, HeLa, 72 h): 17 nM |
| CC[C@@]1(O)C(=O)OCc2c1cc1n(c2=O)Cc2c-1nc1cc(Cl)c(C)c3c1c2[C@H](NC[C@H](C)O)CC3 [Example 4 (2-7-B), (2S)—N-((1R,9S)-5-chloro-9-ethyl-9-hydroxy-4-methyl-10,13-dioxo-2,3,9,10,13,15-hexahydro-1H,12H-benzo[de]pyrano[3′,4′:6,7]indolizino[1,2-b]quinolin-1-yl)-2-hydroxypropylamine] | 16.4 nM | 51.1 nM | 9.47 nM | 192 nM | – | 5.44 nM | – | – | – |
